Experimental data reported in patent US7393824B1, “Methods of peptide preparation” (Lytix Biopharma, priority 2000, dated 2008).
Like-named read-outs stand apart in the source and are kept apart here. Residues, ends and D or L forms follow the SMILES beside them.

How the values were obtained:
Assay type in all cases: cell-based
[1] = tested on: Staphylococcus aureus ATCC 25923
Description: (§1) The bacterial strains used were: Escherichia coli ATCC 25922 and Staphylococcus aureus ATCC 25923. All strains were stored at −70° C. The bacteria were grown in 2% Bacto Peptone water (Difco 1807-17-4). All tests were performed with bacteria in mid-logarithmic growth phase. Determination of the minimum inhibitory concentration (MIC) of the peptides for bacterial strains were performed in 1% Bacto Peptone water. A standard microdilution technique with an inoculum of 2×10^6 CFU/ml was used. All assays were performed in triplets. Since the peptides are positively charged and therefore could adhere to the plastic wells, we controlled the actual concentration of the peptides in the solution by HPLC. There was no difference between the concentration of the peptides before or after adding the solution to the plastic wells.

[2] = tested on: Escherichia coli ATCC 25922
Description: as §1

[3] = tested on: MRC-5 cells (normal fibroblasts); assay: Fibroblast assay (MTT)
Description: The cells were washed with PBS and then trypsinated using 2 ml trypsin (for a 80 cm culture flask). After the cells had detached from the wall, usually after ca 3 min. of incubation, 5 ml medium with FBS were added. The cells were resuspended and counted. The cells were then transferred to a centrifugation tube and spinned at 1500 rpm for 10 min. The supernatant was removed and the cells resuspended to a concentration of 1×10^5 cells/ml. 100 ul cells suspension was transferred to each well in a 96-well microtiter plate and incubated for 25 hours to allow the cells to attach. Following the incubation, the medium containing serum was removed by turning the plate upside down against a piece of tissue. 100 ul medium without serum and L-glutamine (assay medium) was added to each well, and then removed as before. This was done to remove any trace of serum. […] The rest of the assay was done as previously described for methA, except that after the 2 hour incubation following MTT addition, 80 ul medium instead of 130 ul were removed.

[4] = tested on: Meth A murine sarcoma cell line
Description: Peptide solutions (0.1 ml) were added and the plates incubated at 37° C. for 30 minutes, 4 hours or 24 hours. The cytotoxicity was measured using the MTT method (Mosmann et al., J. Immunol. (1986) 136, 2348-2357).

Structure (SMILES)	Mic S. Aureus ([1]; ATCC 25923) [µM]	Mic E-coli ([2]; ATCC 25922) [µM]	toxicity to fibroblasts [3]	Mic S. Aureus ([1]; Table 2)	Mic E-coli ([2]; Table 2)	fold decrease in activity against Meth A compared to LFB(14-31)m [4] [fold]	IC50 ([4]; 4 h) [µM]
CSCC[C@H](NC(=O)[C@H](CCCNC(=N)N)NC(=O)[C@H](Cc1c[nH]c2ccccc12)NC(=O)[C@H](C)NC(=O)[C@H](Cc1c[nH]c2ccccc12)NC(=O)[C@H](CCCNC(=N)N)NC(=O)[C@H](Cc1ccccc1)NC(=O)[C@H](C)NC(=O)[C@H](CCCCN)NC(=O)[C@H](CCCNC(=N)N)NC(=O)[C@H](C)NC(=O)[C@H](C)NC(=O)[C@@H]1CCCN1)C(=O)N[C@@H](CC(C)C)C(=O)N[C@@H](CCCCN)C(=O)N[C@@H](CCCCN)C(=O)N[C@@H](C)C(=O)N[C@@H](C)C(=O)O [W3→A3, LFB 14-31A2,3,6,10,17F7K16L14R4] (H-PAARKAFRWAWRMLKKAA-OH)	4.6	6.9	little toxicity against fibroblasts	–	–	–	–
CC[C@H](C)[C@H](NC(=O)[C@H](C)NC(=O)[C@@H]1CCCN1)C(=O)N[C@@H](CCCNC(=N)N)C(=O)N[C@@H](CCCCN)C(=O)N[C@@H](C)C(=O)N[C@@H](Cc1ccccc1)C(=O)N[C@@H](CCCNC(=N)N)C(=O)N[C@@H](Cc1c[nH]c2ccccc12)C(=O)N[C@@H](C)C(=O)N[C@@H](Cc1c[nH]c2ccccc12)C(=O)N[C@@H](CCCNC(=N)N)C(=O)N[C@@H](CCSC)C(=O)N[C@@H](CC(C)C)C(=O)N[C@@H](CCCCN)C(=O)N[C@@H](CCCCN)C(=O)N[C@@H](C)C(=O)N[C@@H](C)C(=O)O [W3→I3] (H-PAIRKAFRWAWRMLKKAA-OH; N-terminus and C-terminus assumed)	–	–	–	2/4	2/4	–	–
CSCC[C@H](NC(=O)[C@H](CCCNC(=N)N)NC(=O)[C@H](Cc1c[nH]c2ccccc12)NC(=O)[C@H](C)NC(=O)[C@H](C)NC(=O)[C@H](CCCNC(=N)N)NC(=O)[C@H](Cc1ccccc1)NC(=O)[C@H](C)NC(=O)[C@H](CCCCN)NC(=O)[C@H](CCCNC(=N)N)NC(=O)[C@H](Cc1c[nH]c2ccccc12)NC(=O)[C@H](C)NC(=O)[C@@H]1CCCN1)C(=O)N[C@@H](CC(C)C)C(=O)N[C@@H](CCCCN)C(=O)N[C@@H](CCCCN)C(=O)N[C@@H](C)C(=O)N[C@@H](C)C(=O)O [W9→A9, LFB 14-31A2,6,9,10,17F7K16L14R4] (H-PAWRKAFRAAWRMLKKAA-OH; N-terminus and C-terminus assumed)	2.4	4.6	–	–	–	–	–
CSCC[C@H](NC(=O)[C@H](CCCNC(=N)N)NC(=O)[C@H](C)NC(=O)[C@H](C)NC(=O)[C@H](Cc1c[nH]c2ccccc12)NC(=O)[C@H](CCCNC(=N)N)NC(=O)[C@H](Cc1ccccc1)NC(=O)[C@H](C)NC(=O)[C@H](CCCCN)NC(=O)[C@H](CCCNC(=N)N)NC(=O)[C@H](Cc1c[nH]c2ccccc12)NC(=O)[C@H](C)NC(=O)[C@@H]1CCCN1)C(=O)N[C@@H](CC(C)C)C(=O)N[C@@H](CCCCN)C(=O)N[C@@H](CCCCN)C(=O)N[C@@H](C)C(=O)N[C@@H](C)C(=O)O [W11→A11, LFB 14-31A2,6,10,11,17F7K16L14R4] (H-PAWRKAFRWAARMLKKAA-OH; N-terminus and C-terminus assumed)	>1.2	4.6	–	–	–	1.5	11
